From US4571408A, “α,β-Dihydropolyprenyl derivatives for treating hepatitis” (Eisai Co., Ltd., priority 1980, dated 1986)

How the values were obtained:
[1] = tested on: liver disease (hepatitis) induced by D-galactosamine; assay: Activity against liver disease (hepatitis) induced by D-galactosamine; assay type: in vivo, rats (SD strain); conditions: test compound orally 400 mg./kg. each time (0, 4, 10, 24 h); D-galactosamine hydrochloride s.c. 200 mg./kg. (4, 10, 24 h); blood collection at 28 h; nine rats per group
Description: Activity against liver disease (hepatitis) induced by D-galactosamine
D-Galactosamine hydrochloride and the above-listed compound were administered (1) subcutaneously in the dosage of 200 mg./kg. each time and (2) orally in the dosage of 400 mg./kg. each time, respectively, to rats (SD strain, weight: approximately 250 g.) according to the schedule described hereinafter. After completion of the administrations, the blood was collected from the rats and there were measured the GOT value, GPT value and alkali phosphotase value, all of which are indicative of the degree of liver disease.
Each test compound was administered in the form of a suspension thereof in a 5% aqueous gum arabic solution. The D-galactosamine hydrochloride was administered in the form of an aqueous solution thereof in distilled water adjusted to pH 7 by addition of potassium hydroxide.
There were provided the test compound groups (nine rats per each group) in which the rats were administered with the test compound and with D-galactosamine hydrochloride; a control group (fourteen rats) in which the rats were administered with a plain 5% aqueous gum arabic solution free of the test compound and with D-galactosamine hydrochloride; and a normal group (eight rats) in which the rats were not administered with either the test compound or D-galactosamine hydrochloride.
4 test compound and D-galactosamine
10 test compound and D-galactosamine
24 test compound and D-galactosamine

rats (Wistar strain) = assay: Toxicity (oral administration to rats); assay type: in vivo; conditions: orally, 4,000 mg./kg., ten rats (Wistar strain), suspended in 5% aqueous gum arabic solution
Description: Each of the above-listed compounds, A, B, C and D was suspended in a 5% aqueous gum arabic solution and then was administered orally to ten rats (Wistar strain) in the dosage of 4,000 mg./kg.

Row | Structure (SMILES) | Alkali phosphatase value [1] | GOT value [1] | GPT value [1] | Deaths of the rats (rats (Wistar strain))
1 | CC(C)=CCC/C(C)=C/CC/C(C)=C/CCC(C)CCO (stereo not shown) [Compound C, (E, E)-3,7,11,15-tetramethyl-6,10,14-hexadecatrien-1-ol] | 54.2 KA - u | 337.7 carmen unit | 185.6 carmen unit | No deaths of the rats were observed
2 | CC(=O)OCCC(C)CC/C=C(\C)CC/C=C(\C)CCC=C(C)C (stereo not shown) [Compound D, (E, E)-3,7,11,15-tetramethyl-6,10,14-hexadecatrienyl acetate] | 53.5 KA - u | 315.3 carmen unit | 178.7 carmen unit | No deaths of the rats were observed
3 | CCOC(=O)CC(C)CC/C=C(\C)CC/C=C(\C)CCC=C(C)C (stereo not shown) [Compound B, ethyl (E, E)-3,7,11,15-tetramethyl-6,10,14-hexadecatrienoate] | 55.8 KA - u | 307.1 carmen unit | 199.7 carmen unit | No deaths of the rats were observed
4 | CC(C)=CCC/C(C)=C/CC/C(C)=C/CCC(C)CC(=O)O (stereo not shown) [Compound A, (E, E)-3,7,11,15-tetramethyl-6,10,14-hexadecatrienoic acid] | 56.2 KA - u | 312.4 carmen unit | 208.3 carmen unit | No deaths of the rats were observed
